Reference: ChEMBL document CHEMBL1201862, “PubChem BioAssay data set” (2004)
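Compound exposure: 48 hours, 5 concentrations, 96-well plates. GI50 marks 50% less growth.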 The source made the active and inactive calls. No stated cut-off is given here; in the data, active = GI50 up to about 1.1 µM and inactive = higher.

Columns and labels:
Experiment in all cases: NCI-60 cell line screen, 48 h
[1] = test system: MDA-MB-231
[2] = test system: NCI-H460
[3] = test system: Malme-3M
[4] = test system: LXFL 529
[5] = test system: MDA-MB-435
[6] = test system: NCI-H522
[7] = test system: SF-539
[8] = test system: NCI-H23
[9] = test system: HCT-15
[10] = test system: A498
[11] = test system: RXF 393
[12] = test system: SK-MEL-28
[13] = test system: EKVX
[14] = test system: OVCAR-4
[15] = test system: BT-549
[16] = test system: HOP-92
[17] = test system: SNB-19
[18] = test system: UACC-62
[19] = test system: UACC-257
[20] = test system: MCF7

CC(=O)OCC1C(=O)OCC1C(=O)N1Cc2cc3ccccc3nc2C1 (stereo not given)
GI50 [1]: 6.4 µM (inactive) | GI50 [2]: 13.3 µM (inactive) | GI50 [3]: 1.46 µM (inactive) | GI50 [4]: 1.8 µM (inactive) | GI50 [5]: 2.42 µM (inactive) | GI50 [6]: 0.714 µM (active) | GI50 [7]: 6 µM (inactive) | GI50 [8]: 3.39 µM (inactive) | GI50 [9]: 1.95 µM | GI50 [10]: 5.08 µM (inactive) | GI50 [11]: 1.17 µM (inactive) | GI50 [12]: 2.55 µM (inactive) | GI50 [13]: 8.05 µM (inactive) | GI50 [14]: 1.65 µM (inactive) | GI50 [15]: 2.17 µM (inactive) | GI50 [16]: 1.24 µM (inactive) | GI50 [17]: 17.7 µM (inactive) | GI50 [18]: 3.46 µM (inactive) | GI50 [19]: 2.47 µM (inactive) | GI50 [20]: 1.48 µM (inactive)
